# How the values were obtained:
# [1] = Meropenem concentration in stool of mice given meropenem in drinking water; type: in vivo; conditions: mouse, oral; 0.625 g/L in drinking water; normal SPF mice; stool 48 hours after starting; median±SE; read-out: meropenem concentration in fecal samples
# Experimental: To further explore a potential causal relationship between meropenem and intestinal GVHD, the effects of meropenem on GVHD in a mouse model of allo-HSCT were examined. A method of administering meropenem to mice was first developed that would better mimic the effects of meropenem on the intestinal microbiome of patients, which is typically given every 8 hours intravenously. Previously, antibiotics were administered subcutaneously to mice (25), and meropenem concentrations were quantified in the cecal lumen of mice 4, 8, 24, 48 and 96 hours after subcutaneous injection. […] Next, drinking water was evaluated as a means of continuously administering meropenem to mice, using bacterial density quantified by 16S ribosomal RNA (16S rRNA) gene quantitative PCR (qPCR) to gauge reductions of the intestinal microbiota.
# Murine isolates of Enterococcus faecalis (MDA-JAX EF001), Clostridium disporicum (MDA-JAX CD001), Clostridium saudiense (MDA-JAX CS001), and Lachnospiraceae unclassified (MDA-JAX LS001) were also tested.
# Antibiotics administration.
# intestinal microbiome = assay: allo-HSCT patients who underwent intestinal microbiome profiling (meropenem-treated vs untreated); type: in vivo, human
# Experimental: Next, the effects of meropenem on the composition of the colonic microbiota of transplanted patients and mice were investigated. Fecal specimens were collected from HSCT patients transplanted from 2014 to 2019 and 44 patients were identified who were treated with allo-HSCT following conditioning with fludarabine and busulfan.
# Fecal samples collected at baseline following hospital admission around day −7 as well as on day 14 following allo-HSCT were examined (FIG. 15A). […] A paired differential abundance analysis was then performed, asking which bacterial genera were the most changed from baseline in the two subgroups of patients.
# Retrospective study design.
# Sequencing of 16S rRNA gene amplicons. Fecal samples from patients and mice were weighed before DNA isolation. In brief, genomic DNA was isolated using the QIAAMP® DNA mini kit (51306, QIAGEN®) according to the manufacturer's protocol that was modified to include an intensive bead-beating lysis step. The V4 region of 16S rRNA gene was amplified by PCR from 100 ng of each of extracted and purified genomic DNA using 515 forward and 806 reverse primer pairs (59). The quality and quantity of the barcoded amplicons were assessed on an Agilent 4200 TapeStation system (Agilent) and QUBIT™ Fluorometer (THERMO FISHER […]™), and libraries were prepared after pooling at equimolar ratios. The final libraries were purified using […]® gel extraction kit (28706X4, QIAGEN®) and sequenced with a 2×250 base pair paired-end protocol on the […]® MISEQ™ platform.
# Microbiome data analysis. Sequencing data from paired-end reads were de-multiplexed using QIIME 2 (60). Merging of paired-end reads, dereplicating, and length filtering was performed using VSEARCH 2.17.1 (61). Following de-noising and chimera calling using the unoise3 command (62), unique sequences were taxonomically classified with mothur (63) using the Silva database (64) version 138. Weighted UniFrac distances (65) were determined using QIIME 2, visualized using principal coordinate analysis, and evaluated for statistical significance using permutational multivariate analysis of variance (PERMANOVA) testing. For differential abundance analysis, abundances of sequences belonging to taxonomical groups were included for analysis using the Mann-Whitney U test and adjusted for multiple comparisons using the method of Benjamini and Hochberg. Paired samples were analyzed using the Wilcoxon signed rank test with adjustment for multiple comparisons.
# [2] = Murine GVHD model: colonic luminal carbohydrates by acid hydrolysis and IC-MS; type: in vivo; conditions: day 18; mice with GVHD
# Text: BT is known to be a versatile utilizer of a variety of carbohydrate sources derived from the diet, including xylose via the xylose isomerase pathway, as well as host glycans. […] Host mucin glycans are particularly low on the metabolic hierarchy and are typically targeted only after other dietary polysaccharides have been depleted (43). […] Thus, in some embodiments, levels of soluble carbohydrates in the colonic lumen may be perturbed by meropenem treatment, given that it is shown herein that meropenem depletes the abundance of commensal Clostridia, which function to metabolize dietary fibers and starches (45). Using acid hydrolysis followed by ion chromatography-mass spectrometry (IC-MS), levels of monosaccharide subunits comprising soluble luminal polysaccharides were characterized in the colon of mice.
# Carbohydrates analysis by IC-MS. To determine the relative abundance of carbohydrates in mouse feces samples, extracts were prepared and analyzed by ultra-HRMS. Fecal pellets were homogenized with a […]® Tissue Homogenizer. Metabolites were extracted using 1 mL ice-cold 80/20 (v/v) methanol/water. Extracts were centrifuged at 17,000 g for 5 min at 4° C., and supernatants were transferred to clean tubes, followed by evaporation to dryness under nitrogen. Dried extracts were reconstituted in deionized water, and 5 μL was injected for analysis by IC-MS. […]
# [3] = 44 microbiome-profiled patients, meropenem days −10 to 14
smiles,measurement,setting,value
C[C@@H](O)[C@H]1C(=O)N2C(C(=O)O)=C(S[C@@H]3CN[C@H](C(=O)N(C)C)C3)[C@H](C)[C@H]12 [meropenem],concentration at 48 h,[1],110 ± 70 ng/g
same,"Acute GVHD Grade 0, number of patients",intestinal microbiome; [3],7
same,"Acute GVHD Grade 0, percentage of patients",intestinal microbiome; [3],(38%)
same,"Acute GVHD Grade I, number of patients",intestinal microbiome; [3],0
same,"Acute GVHD Grade I, percentage of patients",intestinal microbiome; [3],(0%)
same,"Acute GVHD Grade II, number of patients",intestinal microbiome; [3],7
same,"Acute GVHD Grade II, percentage of patients",intestinal microbiome; [3],(38%)
same,"Acute GVHD Grade III-IV, number of patients",intestinal microbiome; [3],4
same,"Acute GVHD Grade III-IV, percentage of patients",intestinal microbiome; [3],(22%)
same,bacterial genera most changed from baseline (paired differential abundance),intestinal microbiome; fecal samples pre-HSCT vs day 14,significant expansion of bacteria from the genus Bacteroides
same,concentrations of soluble luminal polysaccharide monosaccharide subunits,[2],significantly lower concentrations of arabinose- and xylose-derived polysaccharides
